Results from ChEMBL document CHEMBL1201862, “PubChem BioAssay data set” (2004).
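Each compound was tested at five concentrations against cells in 96-well plates for 48 hours. GI50 is the concentration that inhibits growth by half.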 Active and inactive are the calls of the source. Rule as the data show it: active = GI50 up to about 1.1 µM and inactive = higher.

Legend:
Assay in all cases: NCI anticancer screen, dose series, 48 h
A498 = system: A498
A549 = system: A549
CAKI-1 = system: CAKI-1
CCRF-CEM = system: CCRF-CEM
COLO 205 = system: COLO 205
DLD-1 = system: DLD-1
DMS-114 = system: DMS-114
DMS-273 = system: DMS-273
EKVX = system: EKVX
HCC 2998 = system: HCC 2998
HCT-116 = system: HCT-116
HCT-15 = system: HCT-15
HL-60 = system: HL-60
HOP-18 = system: HOP-18
HOP-62 = system: HOP-62
HOP-92 = system: HOP-92
HT-29 = system: HT-29
IGROV-1 = system: IGROV-1
K562 = system: K562
KM-20L2 = system: KM-20L2
KM12 = system: KM12
LOX IMVI = system: LOX IMVI
M19-MEL = system: M19-MEL
MCF7 = system: MCF7
MOLT-4 = system: MOLT-4
Malme-3M = system: Malme-3M
NCI-H226 = system: NCI-H226
NCI-H23 = system: NCI-H23
NCI-H460 = system: NCI-H460
NCI-H522 = system: NCI-H522
NCI/ADR-RES = system: NCI/ADR-RES
OVCAR-3 = system: OVCAR-3
OVCAR-4 = system: OVCAR-4
OVCAR-5 = system: OVCAR-5
OVCAR-8 = system: OVCAR-8
RPMI-8226 = system: RPMI-8226
RXF 393 = system: RXF 393
SF-268 = system: SF-268
SF-295 = system: SF-295
SF-539 = system: SF-539
SK-MEL-28 = system: SK-MEL-28
SK-MEL-2 = system: SK-MEL-2
SK-MEL-5 = system: SK-MEL-5
SK-OV-3 = system: SK-OV-3
SN12C = system: SN12C
SNB-19 = system: SNB-19
SNB-75 = system: SNB-75
SNB-78 = system: SNB-78
SW-620 = system: SW-620
U-251 = system: U-251
UACC-257 = system: UACC-257
UACC-62 = system: UACC-62
UO-31 = system: UO-31
XF498 = system: XF498
786-0 = system: 786-0
ACHN = system: ACHN
BT-549 = system: BT-549
DU-145 = system: DU-145
Hs-578T = system: Hs-578T
M14 = system: M14
MDA-MB-231 = system: MDA-MB-231
MDA-MB-435 = system: MDA-MB-435
MDA-N = system: MDA-N
PC-3 = system: PC-3
SR = system: SR
T47D = system: T47D
TK-10 = system: TK-10

For `C=C1C(=O)O[C@@H]2[C@H]3O[C@]3(C)CCC=C(C)CC[C@@H]12`, the GI50 (A498) was 7.05 µM (inactive), the GI50 (A549) was 94.6 µM (inactive) and the GI50 (CAKI-1) was 9.31 µM (inactive). For the same compound, the GI50 (CCRF-CEM) was 8.38 µM (inactive), the GI50 (COLO 205) was 14.5 µM (inactive) and the GI50 (DLD-1) was 12.5 µM (inactive). For the same compound, the GI50 (DMS-114) was 45.9 µM (inactive), the GI50 (DMS-273) was 24.6 µM (inactive) and the GI50 (EKVX) was 17.4 µM (inactive). The GI50 (HCC 2998) was 24.2 µM (inactive), the GI50 (HCT-116) was 10.3 µM (inactive) and the GI50 (HCT-15) was 14.7 µM. For the same compound, the GI50 (HL-60) was 4.69 µM (inactive), the GI50 (HOP-18) was 14.9 µM (inactive) and the GI50 (HOP-62) was 49.1 µM (inactive). For the same compound, the GI50 (HOP-92) was 13.6 µM (inactive), the GI50 (HT-29) was 23.6 µM (inactive) and the GI50 (IGROV-1) was 21.1 µM (inactive). The GI50 (K562) was 21.8 µM (inactive), the GI50 (KM-20L2) was 24.8 µM (inactive) and the GI50 (KM12) was 16.8 µM (inactive). The GI50 (LOX IMVI) was 8.24 µM (inactive), the GI50 (M19-MEL) was 14.3 µM (inactive) and the GI50 (MCF7) was 16.4 µM (inactive). For the same compound, the GI50 (MOLT-4) was 14.2 µM (inactive), the GI50 (Malme-3M) was 13.4 µM (inactive) and the GI50 (NCI-H226) was 20.5 µM (inactive). For the same compound, the GI50 (NCI-H23) was 20.2 µM (inactive), the GI50 (NCI-H460) was 18.8 µM (inactive) and the GI50 (NCI-H522) was 5.47 µM (inactive). For the same compound, the GI50 (NCI/ADR-RES) was 15 µM (inactive), the GI50 (OVCAR-3) was 18.4 µM (inactive) and the GI50 (OVCAR-4) was 21.6 µM (inactive). For the same compound, the GI50 (OVCAR-5) was 34.2 µM (inactive), the GI50 (OVCAR-8) was 16.7 µM (inactive) and the GI50 (RPMI-8226) was 8.71 µM (inactive). For the same compound, the GI50 (RXF 393) was 12.2 µM (inactive), the GI50 (SF-268) was 23.7 µM (inactive) and the GI50 (SF-295) was 24.8 µM (inactive). For the same compound, the GI50 (SF-539) was 19 µM (inactive), the GI50 (SK-MEL-28) was 21.1 µM (inactive) and the GI50 (SK-MEL-2) was 16.2 µM (inactive). For the same compound, the GI50 (SK-MEL-5) was 17.5 µM (inactive), the GI50 (SK-OV-3) was 54.7 µM (inactive) and the GI50 (SN12C) was 22.9 µM (inactive). The GI50 (SNB-19) was 63.7 µM (inactive), the GI50 (SNB-75) was 48.4 µM (inactive) and the GI50 (SNB-78) was 18.2 µM (inactive). The GI50 (SW-620) was 14.8 µM (inactive), the GI50 (U-251) was 41.6 µM (inactive) and the GI50 (UACC-257) was 14.9 µM (inactive). For the same compound, the GI50 (UACC-62) was 16.8 µM (inactive), the GI50 (UO-31) was 42 µM (inactive) and the GI50 (XF498) was 16.9 µM (inactive).
In the case of `Nc1cc2[nH]cnc2c(=O)[nH]1` [DEZAGUANINE], the GI50 (786-0) is reported as 19.4 µM (inactive), the GI50 (A498) is reported as 63.5 µM (inactive) and the GI50 (A549) is reported as 24.5 µM (inactive). For the same compound, the GI50 (ACHN) was 8.87 µM (inactive), the GI50 (BT-549) was > 123 µM (inactive) and the GI50 (CAKI-1) was 11 µM (inactive). The GI50 (CCRF-CEM) was 7.93 µM (inactive), the GI50 (COLO 205) was 21.9 µM (inactive) and the GI50 (DLD-1) was 13.9 µM (inactive). The GI50 (DMS-114) was 97.7 µM (inactive), the GI50 (DMS-273) was 8.26 µM (inactive) and the GI50 (DU-145) was 5.43 µM (inactive). The GI50 (EKVX) was 56.2 µM (inactive), the GI50 (HCC 2998) was 82.8 µM (inactive) and the GI50 (HCT-116) was 16.6 µM (inactive). For the same compound, the GI50 (HCT-15) was 19.3 µM, the GI50 (HL-60) was 6.21 µM (inactive) and the GI50 (HOP-18) was > 121 µM (inactive). The GI50 (HOP-62) was 18.3 µM (inactive), the GI50 (HOP-92) was 77.8 µM (inactive) and the GI50 (HT-29) was 21.5 µM (inactive). For the same compound, the GI50 (Hs-578T) was > 196 µM (inactive), the GI50 (IGROV-1) was 23.1 µM (inactive) and the GI50 (K562) was 12.3 µM (inactive). The GI50 (KM-20L2) was 33.7 µM (inactive), the GI50 (KM12) was 51.6 µM (inactive) and the GI50 (LOX IMVI) was 10.5 µM (inactive). The GI50 (M14) was 45.6 µM (inactive), the GI50 (M19-MEL) was 181 µM (inactive) and the GI50 (MCF7) was 21.9 µM (inactive). For the same compound, the GI50 (MDA-MB-231) was 49.9 µM (inactive), the GI50 (MDA-MB-435) was 14.3 µM (inactive) and the GI50 (MDA-N) was 15.5 µM (inactive). The GI50 (MOLT-4) was 6.28 µM (inactive), the GI50 (Malme-3M) was 47.6 µM (inactive) and the GI50 (NCI-H226) was 77.1 µM (inactive). For the same compound, the GI50 (NCI-H23) was 31.6 µM (inactive), the GI50 (NCI-H460) was 10.4 µM (inactive) and the GI50 (NCI-H522) was 14.8 µM (inactive). The GI50 (NCI/ADR-RES) was 50.9 µM (inactive), the GI50 (OVCAR-3) was 11 µM (inactive) and the GI50 (OVCAR-4) was 20.2 µM (inactive). The GI50 (OVCAR-5) was 45.5 µM (inactive), the GI50 (OVCAR-8) was 40.2 µM (inactive) and the GI50 (PC-3) was 9.29 µM (inactive). For the same compound, the GI50 (RPMI-8226) was 19.3 µM (inactive), the GI50 (RXF 393) was 41.7 µM (inactive) and the GI50 (SF-268) was 15 µM (inactive). The GI50 (SF-295) was > 219 µM (inactive), the GI50 (SF-539) was 16 µM (inactive) and the GI50 (SK-MEL-28) was 40.6 µM (inactive). For the same compound, the GI50 (SK-MEL-2) was 5.96 µM (inactive), the GI50 (SK-MEL-5) was 63.7 µM (inactive) and the GI50 (SK-OV-3) was 5.12 µM (inactive). The GI50 (SN12C) was 14.6 µM (inactive), the GI50 (SNB-19) was > 264 µM (inactive) and the GI50 (SNB-75) was 90.8 µM (inactive). The GI50 (SNB-78) was > 300 µM (inactive), the GI50 (SR) was 9.1 µM (inactive) and the GI50 (SW-620) was 17.7 µM (inactive). The GI50 (T47D) was 89.1 µM (inactive), the GI50 (TK-10) was 13.9 µM (inactive) and the GI50 (U-251) was 30.5 µM (inactive). For the same compound, the GI50 (UACC-257) was 109 µM (inactive), the GI50 (UACC-62) was 12.9 µM (inactive) and the GI50 (UO-31) was 32.3 µM (inactive). The GI50 (XF498) was 5.42 µM (inactive).
